Results published in US20130040978A1 (priority 2010, published 2013).
Structures can show the parent of a compound that is named as a salt.

Experiments:
SSTR5 [1] = biological target: T1, SSTR5 (Homo sapiens, UniProt P35346); assay: SSTR5 receptor-ligand binding assay, CHO-K1 cell membranes, 125I-SRIF radioligand; parameters: expressed in transfected cells; settings: Table 4, read-out: Bnd IC50
Experimental: The receptor-ligand binding assays of all 5 subtype of SSTRs were performed with membranes isolated from Chinese hamster ovary (CHO)-K1 cells stably expressing the cloned human somatostatin receptors in 96-well format as previous reported. (Yang et al. PNAS 95:10836-10841, (1998), Birzin et al. Anal. Biochem. 307:159-166, (2002)).
The stable cell lines for SSTR1-SSTR5 were developed by stably transfecting with DNA for all five SSTRs using Lipofectamine. Neomycin-resistant clones were selected and maintained in medium containing 400 μg/mL G418 (Rohrer et al. Science 282:737-740, (1998)). Binding assays were performed using (3-125I-Tyr11)-SRIF-14 or (3-125I-Tyrl 1)-SRIF-28 as the radioligand (used at 0.1 nM) and The Packard Unifilter assay plate. The assay buffer consisted of 50 mM TrisHCl (pH 7.8) with 1 mM EGTA, 5 mM MgCl2, leupeptin (10 μg/mL), pepstatin (10 μg/mL), bacitracin (200 μg/mL), and aprotinin (0.5 μg/mL). CHO-K1 cell membranes, radiolabeled somatostatin, and unlabeled test compounds were resuspended or diluted in this assay buffer. Unlabeled test compounds were examined over a range of concentrations from 0.01 nM to 10,000 nM. The Ki values for compounds were determined as described by Cheng and Prusoff Biochem Pharmacol. 22:3099-3108 (1973).

SSTR5 [2] = biological target: T1, SSTR5; assay: Functional assay of inhibition of SSTR5 mediated cyclic AMP production in SSTR5 expressing CHO cells; assay type: cell-based, human; settings: forskolin (FSK) plus SS-28, read-out: cAMP IC50

T1 sequence (P35346 whole entry): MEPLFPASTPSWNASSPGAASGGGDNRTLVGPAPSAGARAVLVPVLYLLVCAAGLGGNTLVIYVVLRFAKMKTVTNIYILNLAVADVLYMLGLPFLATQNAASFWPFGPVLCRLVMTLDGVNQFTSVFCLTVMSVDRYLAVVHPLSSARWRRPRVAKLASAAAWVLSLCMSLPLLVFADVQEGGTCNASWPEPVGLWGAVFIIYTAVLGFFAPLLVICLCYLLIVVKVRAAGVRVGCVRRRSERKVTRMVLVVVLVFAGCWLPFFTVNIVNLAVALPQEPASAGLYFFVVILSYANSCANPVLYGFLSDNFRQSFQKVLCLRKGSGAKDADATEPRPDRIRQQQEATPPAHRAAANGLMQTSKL

Compound | IC50 (SSTR5 [1]) [nM] | IC50 (SSTR5 [2]) [nM]
4-{8-[(4,4-Dimethyl-3,4-dihydro-2-H-chromen-6-yl)methyl]-1-oxa-2,8-diazaspiro[4.5]dec-2-en-3-yl}benzoic acid, TFA salt [Example 2] | 4.3 | 5.2
CC(C)(C)n1cc(CN2CCC3(CC2)CC(c2ccc(C(=O)O)cc2)=NO3)c(-c2ccc(F)c(F)c2F)n1 [Example 3, 4-(8-{[1-tert-Butyl-3-(2,3,4-trifluorophenyl)-1H-pyrazol-4-yl]methyl})-1-oxa-2,8-diazaspiro[4.5]dec-2-en-3-yl)benzoic acid, TFA salt] | 2.8 | 8.2
CCOc1ccc(-c2ccc(F)cc2F)c(CN2CCC3(CC2)CC(c2ccc(C(=O)O)cc2)=NO3)c1 [Example 4, 4-{8-[(4-Ethoxy-2′,4′-difluorobiphenyl-2-yl)methyl]-1-oxa-2,8-diazaspiro[4.5]dec-2-en-3-yl}benzoic acid] | 2.9 | 3
CCOc1cc(CN2CCC3(CC2)CC(c2ccc(C(=O)O)cc2)=NO3)cc(OCC)c1OCC(F)(F)F [Example 5, 4-{8-[3,5-Diethoxy-4-(2,2,2-trifluoroethoxy)benzyl]-1-oxa-2,8-diazaspiro[4.5]dec-2-en-3-yl}benzoic acid] | 6 | 2.4
CC(C)n1cc(CN2CCC3(CC2)CC(c2ccc(C(=O)O)cc2)=NO3)c2c(-c3ccc(F)cc3)cccc21 [Example 39, 4-(8-{[4-(4-Fluorophenyl)-1-(propan-2-yl)-1H-indol-3-yl]methyl}-1-oxa-2,8-diazaspiro[4.5]dec-2-en-3-yl)benzoic acid, TFA salt] | – | 0.18
CC(C)n1cc(CN2CCC3(CC2)CC(c2ccc(C(=O)O)cc2)=NO3)c2c(-c3ccc(F)nc3)cccc21 [Example 40, 4-(8-{[4-(6-Fluoropyridin-3-yl)-1-(propan-2-yl)-1H-indol-3-yl]methyl}-1-oxa-2,8-diazaspiro[4.5]dec-2-en-3-yl)benzoic acid, TFA salt] | – | 0.4
CC(C)n1cc(CN2CCC3(CC2)CC(c2ccc(C(=O)O)cc2)=NO3)c2c(-c3cc(F)c(F)cc3F)cccc21 [Example 41, 4-(8-{[4-(2,4,5-Trifluorophenyl)-1-(propan-2-yl)-1H-indol-3-yl]methyl}-1-oxa-2,8-diazaspiro[4.5]dec-2-en-3-yl)benzoic acid, TFA salt] | – | 0.3
Cc1cccc2c(CN3CCC4(CC3)CC(c3ccc(C(=O)O)cc3)=NO4)cn(C(C)C)c12 [Example 44, 4-(8-{[7-Methyl-1-(propan-2-yl)-1H-indol-3-yl]methyl}-1-oxa-2,8-diazaspiro[4.5]dec-2-en-3-yl)benzoic acid, TFA salt] | – | 14.4
Cc1cccc2c(CN3CCC4(CC3)CC(c3ccc(C(=O)O)cc3)=NO4)cn(C3CC3)c12 [Example 45, 4-(8-{[7-Methyl-1-(cyclopropyl)-1H-indol-3-yl]methyl}-1-oxa-2,8-diazaspiro[4.5]dec-2-en-3-yl)benzoic acid, TFA salt] | – | 9.15
CC(C)n1cc(CN2CCC3(CC2)CC(c2ccc(C(=O)O)cc2)=NO3)c2c(F)c(F)c(F)c(F)c21 [Example 46, 4-(8-{[1-(propan-2-yl)-4,5,6,7-(tetrafluoro)-1H-indol-3-yl]methyl}-1-oxa-2,8-diazaspiro[4.5]dec-2-en-3-yl)benzoic acid, TFA salt] | – | 12.1
CC(C)n1cc(CN2CCC3(CC2)CC(c2ccc(C(=O)O)cc2)=NO3)c2cccc(C3CC3)c21 [Example 48, 4-(8-{[7-(Cyclopropyl)-1-(propan-2-yl)-1H-indol-3-yl]methyl}-1-oxa-2,8-diazaspiro[4.5]dec-2-en-3-yl)benzoic acid, TFA salt] | – | 3.36
O=C(O)c1ccc(C2=NOC3(CCN(Cc4cn(C5CC5)c5c(C6CC6)cccc45)CC3)C2)cc1 [Example 50, 4-(8-{[1,7-(Dicyclopropyl)-1H-indol-3-yl]methyl}-1-oxa-2,8-diazaspiro[4.5]dec-2-en-3-yl)benzoic acid, TFA salt] | – | 13.5
Cc1cc(-c2cccnc2)c(CN2CCC3(CC2)CC(c2ccc(C(=O)O)cc2)=NO3)cc1C(F)(F)F [Example 68] | – | 13.2
CC1(C)CCOc2c(Cl)cc(CN3CCC4(CC3)CC(c3ccc(C(=O)O)cc3)=NO4)cc21 [Example 87, 4-{8-[(8-Chloro-4,4-dimethyl-3,4-dihydro-2H-chromen-6-yl)methyl]-1-oxa-2,8-diazaspiro[4.5]dec-2-en-3-yl}benzoic acid trifluoroacetate] | – | 1.5
Cc1cc(CN2CCC3(CC2)CC(c2ccc(C(=O)O)cc2)=NO3)cc2c1OC(C)(C)CC2 [Example 91, 4-{8-[(2,2,8-Trimethyl-3,4-dihydro-2H-chromen-6-yl)methyl]-1-oxa-2,8-diazaspiro[4.5]dec-2-en-3-yl}benzoic acid, TFA salt] | – | 72.7
CC1(C)CC2(CC2)c2cc(CN3CCC4(CC3)CC(c3ccc(C(=O)O)cc3)=NO4)ccc2O1 [Example 95, 4-{8-[(2,2-Dimethyl-2,3-dihydrospiro[chromene-4,1′-cyclopropan]-6-yl)methyl]-1-oxa-2,8-diazaspiro[4.5]dec-2-en-3-yl}benzoic acid, TFA salt] | – | 18.7
CC1(C)CC2(CC2)c2cc(CN3CCC4(CC3)CC(c3ccc(C(=O)O)cc3)=NO4)cc(Cl)c2O1 [Example 96, 4-{8-[(8-Chloro-2,2-dimethyl-2,3-dihydrospiro[chromene-4,1′-cyclopropan]-6-yl)methyl]-1-oxa-2,8-diazaspiro[4.5]dec-2-en-3-yl}benzoic acid, TFA salt] | – | 9.4
CC1(C)CC2(CC2)c2cc(CN3CCC4(CC3)CC(c3ccc(C(=O)O)cc3)=NO4)cc(C3CC3)c2O1 [Example 97, 4-{8-[(8-Cyclopropyl-2,2-dimethyl-2,3-dihydrospiro[chromene-4,1′-cyclopropan]-6-yl)methyl]-1-oxa-2,8-diazaspiro[4.5]dec-2-en-3-yl}benzoic acid, TFA salt] | – | 4.05
CC1(C)CCSc2c(C3CC3)cc(CN3CCC4(CC3)CC(c3ccc(C(=O)O)cc3)=NO4)cc21 [Example 98, 4-{8-[(8-Cyclopropyl-4,4-dimethyl-3,4-dihydro-2H-thiochromen-6-yl)methyl]-1-oxa-2,8-diazaspiro[4.5]dec-2-en-3-yl}benzoic acid, TFA salt] | – | 12.6

Now from value to compound:

IC50 (SSTR5 [1]) [nM] | IC50 (SSTR5 [2]) [nM] | Compound
1.2 | 0.72 | CCOc1cc(CN2CCC3(CC2)CC(c2ccc(C(=O)O)cc2)=NO3)cc(OCC)c1-c1ccc(F)cc1 [Example 1, 4-{8-[(2,6-Diethoxy-4′-fluorobiphenyl-4-yl)methyl]-1-oxa-2,8-diazaspiro[4.5]dec-2-en-3-yl}benzoic acid, TFA salt]
1.8 | 5.7 | CCOc1ccc(-c2cc(F)c(F)cc2F)c(CN2CCC3(CC2)CC(c2ccc(C(=O)O)cc2)=NO3)c1 [Example 10, 4-{8-[(4-Ethoxy-2′,4′,5′-trifluorobiphenyl-2-yl)methyl]-1-oxa-2,8-diazaspiro[4.5]dec-2-en-3-yl}benzoic acid]
– | 2.5 | CC(C)n1cc(CN2CCC3(CC2)CC(c2ccc(C(=O)O)cc2)=NO3)c2c(-c3ccc(F)cc3)ccnc21 [Example 43, 4-(8-{[4-(4-Fluorophenyl)-1-(propan-2-yl)-1H-pyrrolo[2,3-b]pyridin-3-yl]methyl}-1-oxa-2,8-diazaspiro[4.5]dec-2-en-3-yl)benzoic acid, TFA salt]
– | 0.28 | CC(C)n1cc(CN2CCC3(CC2)CC(c2ccc(C(=O)O)cc2)=NO3)c2c(C3CC3)cccc21 [Example 47, 4-(8-{[4-(Cyclopropyl)-1-(propan-2-yl)-1H-indol-3-yl]methyl}-1-oxa-2,8-diazaspiro[4.5]dec-2-en-3-yl)benzoic acid, TFA salt]
– | 2.5 | O=C(O)c1ccc(C2=NOC3(CCN(Cc4cn(C5CC5)c5ccc(C6CC6)cc45)CC3)C2)cc1 [Example 49, 4-(8-{[1,5-(Dicyclopropyl)-1H-indol-3-yl]methyl}-1-oxa-2,8-diazaspiro[4.5]dec-2-en-3-yl)benzoic acid, TFA salt]
– | 8.32 | CC(C)n1cc(CN2CCC3(CC2)CC(c2ccc(C(=O)O)cc2)=NO3)c2cc(F)ccc21 [Example 51, 4-(8-{[5-Fluoro-1-(propan-2-yl)-1H-indol-3-yl]methyl}-1-oxa-2,8-diazaspiro[4.5]dec-2-en-3-yl)benzoic acid, TFA salt]
– | 26.5 | O=C(O)c1ccc(C2=NOC3(CCN(Cc4ccc(Cl)c(Br)c4)CC3)C2)cc1 [Example 70, 4-[8-(3-Bromo-4-chlorobenzyl)-1-oxa-2,8-diazaspiro[4.5]dec-2-en-3-yl]benzoic acid]
– | 2.25 | O=C(O)c1ccc(C2=NOC3(CCN(Cc4cc(Cl)cc(C5CC5)c4)CC3)C2)cc1 [Example 85, 4-[8-(3-Chloro-5-cyclopropylbenzyl)-1-oxa-2,8-diazaspiro[4.5]dec-2-en-3-yl]benzoic acid, TFA salt]
– | 472 | CC1(C)CCS(=O)(=O)c2c(Cl)cc(CN3CCC4(CC3)CC(c3ccc(C(=O)O)cc3)=NO4)cc21 [Example 99, 4-{8-[(8-Chloro-4,4-dimethyl-1,1-dioxido-3,4-dihydro-2H-thiochromen-6-yl)methyl]-1-oxa-2,8-diazaspiro[4.5]dec-2-en-3-yl}benzoic acid, TFA salt]
